Experimental data as given in ChEMBL document CHEMBL1614632, “Trend analysis of a database of intravenous pharmacokinetic parameters in humans for 670 drug compounds” (Drug Metab Dispos, 2008).

How the values were obtained:
clinical [1] = conditions: human, in vivo, iv
clinical [2] = conditions: human, in vivo, iv, t1/2
clinical [3] = conditions: human, in vivo, iv, CL
clinical [4] = conditions: human, in vivo, iv; remark: listed apart in the source
clinical [5] = conditions: human, in vivo, iv, Vdss

Row | Compound | fraction unbound (clinical [1]) | half-life (clinical [2]) [h] | clearance (clinical [3]) [mL/min/kg] | MRT (clinical [4]) [h] | Vd (clinical [5]) [L/kg]
1 | CCCCC(=O)N(Cc1ccc(-c2ccccc2-c2nnn[nH]2)cc1)[C@H](C(=O)O)C(C)C | 0.04 | 9.5 | 0.49 | 7.5 | 
2 | Cc1cccc(C)c1NC(=O)NCCCNC(C)C | 0.86 | 5 | 4.5 | 5.2 | 
3 | N[C@@H](Cc1ccc(N(CCCl)CCCl)cc1)C(=O)O | 0.14 |  | 7 | 1.1 | 0.48
4 | CC(C)=CCN1CC[C@]2(C)c3cc(O)ccc3C[C@H]1[C@H]2C [(+)-PENTAZOCINE] | 0.39 |  | 23 | 2.5 | 3.4
5 | CN1CCc2cccc3c2[C@H]1Cc1ccc(O)c(O)c1-3 [APOMORPHINE] | 0.057 |  | 40 |  | 1.6
6 | CN1CCCC(n2nc(Cc3ccc(Cl)cc3)c3ccccc3c2=O)CC1 (configuration not stated) [AZELASTINE] | 0.17 | 22 | 9 | 27 | 
7 | CCc1cccc2cc(C(O)CNC(C)(C)C)oc12 (configuration not stated) [BUFURALOL] | 0.19 | 2.3 | 8.9 | 3.18 | 
8 | CO[C@@]1(NC(=O)C2SC(=C(C(N)=O)C(=O)O)S2)C(=O)N2C(C(=O)O)=C(CSc3nnnn3C)CS[C@@H]21 (some centres not stated) [CEFOTETAN] | 0.15 | 4.5 | 0.42 | 5.2 | 
9 | CCCC(=O)OCOC(=O)C1=C(C)NC(C)=C(C(=O)OC)C1c1cccc(Cl)c1Cl (configuration not stated) [CLEVIDIPINE] | 0.0038 | 0.3 |  | 0.07 | 0.58
10 | COC(=O)[C@H]1[C@@H](OC(=O)c2ccccc2)C[C@@H]2CC[C@H]1N2C [COCAINE] | 0.12 | 0.76 |  | 1 | 
11 | COc1ccc2c3c1O[C@H]1[C@@H](O)C=C[C@H]4[C@@H](C2)N(C)CC[C@@]341 [CODEINE] | 0.7 | 4 | 15 | 3.9 | 
12 | Nc1ccc(S(=O)(=O)c2ccc(N)cc2)cc1 [DAPSONE] | 0.25 |  |  | 29 | 0.83
13 | CC/C=C\C/C=C\C/C=C\C/C=C\C/C=C\C/C=C/CCC(=O)O[C@@H](C(=O)O[C@H]1C[C@@]2(O)[C@@H](OC(=O)c3ccccc3)C3[C@](C)(C(=O)[C@H](OC(C)=O)C(=C1C)C2(C)C)[C@@H](O)C[C@H]1OC[C@@]31OC(C)=O)[C@@H](NC(=O)c1ccccc1)c1ccccc1 (some centres not stated) [DHA PACLITAXEL] | 0.0038 | 60 | 0.025 | 45 | 
14 | CC(=O)Nc1c(I)c(NC(C)=O)c(I)c(C(=O)O)c1I [DIATRIZOIC ACID] | 1 |  | 1.7 | 2.6 | 
15 | O=c1[nH]cc(F)c(=O)[nH]1 [FLUOROURACIL] | 0.64 |  |  |  | 
16 | COc1ccc(Cl)cc1C(=O)NCCc1ccc(S(=O)(=O)NC(=O)NC2CCCCC2)cc1 [GLYBURIDE] | 0.021 | 2.2 |  | 1.6 | 0.08
17 | CN(C)CCCN1c2ccccc2CCc2ccccc21 [IMIPRAMINE] | 0.075 |  |  |  | 12
18 | CN[C@@H]1[C@@H](O)[C@@H](O[C@@H]2[C@@H](O)[C@H](O[C@H]3O[C@H](CN)[C@@H](O)[C@H](O)[C@H]3O)[C@@H](N)C[C@H]2NC(=O)[C@@H](O)CN)OC[C@]1(C)O [ISEPAMICIN] | 0.95 | 24 | 1.3 | 4.1 | 
19 | N=C(N)c1ccc(C(=O)N[C@@H](Cc2ccc(O)cc2)C(=O)N2CCC(OCC(=O)O)CC2)cc1 [LAMIFIBAN] | 0.94 | 2.1 |  | 2.5 | 
20 | N[C@@H](Cc1ccc(O)c(O)c1)C(=O)O [LEVODOPA] | 0.76 | 1.3 |  | 1.2 | 
21 | C=CCN1CC[C@]23c4c5ccc(O)c4O[C@H]2C(=O)CC[C@@]3(O)[C@H]1C5 [NALOXONE] | 0.54 | 1.1 |  | 1.2 | 1.7
22 | O=C1CN(/N=C/c2ccc([N+](=O)[O-])o2)C(=O)N1 [NITROFURANTOIN] | 0.17 | 0.97 |  | 0.98 | 0.57
23 | CCN(CC)CC#CCOC(=O)C(O)(c1ccccc1)C1CCCCC1 (configuration not stated) [OXYBUTYNIN] | 0.0034 | 7.2 |  | 2.7 | 0.85
24 | COc1ccc2c3c1O[C@H]1C(=O)CC[C@@]4(O)[C@@H](C2)N(C)CC[C@]314 [OXYCODONE] | 0.55 | 5.5 | 6.1 | 6.8 | 

Row | Compound | fraction unbound (clinical [1]) | half-life (clinical [2]) [h] | clearance (clinical [3]) [mL/min/kg] | MRT (clinical [4]) [h] | Vd (clinical [5]) [L/kg]
25 | CC(=O)O[C@H]1C[C@@H]2CC[C@@H]3[C@H](CC[C@@]4(C)[C@H]3C[C@H]([N+]3(C)CCCCC3)[C@@H]4OC(C)=O)[C@@]2(C)C[C@@H]1[N+]1(C)CCCCC1 [PANCURONIUM] | 0.09 | 1.9 |  | 2.2 | 0.2
26 | CCC[C@H](N[C@@H](C)C(=O)N1[C@H](C(=O)O)C[C@@H]2CCCC[C@@H]21)C(=O)O [PERINDOPRILAT] | 0.16 | 29 | 1.7 | 7.6 | 
27 | CCOc1ccc(NC(C)=O)cc1 [PHENACETIN] | 0.47 | 0.92 |  | 1.1 | 1.4
28 | COc1ccc(-c2nc3ccc(C4=NNC(=O)CC4C)cc3[nH]2)cc1 (configuration not stated) [PIMOBENDAN] | 0.024 | 1.8 |  | 2.2 | 2.04
29 | C[C@]12C=CC(=O)C=C1CC[C@@H]1[C@@H]2[C@@H](O)C[C@@]2(C)[C@H]1CC[C@]2(O)C(=O)CO [PREDNISOLONE] | 0.25 |  |  |  | 
30 | CC(CN1c2ccccc2Sc2ccccc21)N(C)C (configuration not stated) [PROMETHAZINE] | 0.09 |  |  |  | 
31 | NC(=O)c1ncn([C@@H]2O[C@H](CO)[C@@H](O)[C@H]2O)n1 [RIBAVIRIN] | 1 | 45 | 5.2 | 45 | 
32 | C[C@@H](O)[C@H]1C(=O)N2C(C(=O)O)=C(SCCOC(N)=O)S[C@H]12 [Sch-34343] | 0.35 | 0.8 |  | 0.67 | 0.3
33 | CCCCCCCCCCNCCN[C@@]1(C)C[C@H](O[C@H]2[C@H](Oc3c4cc5cc3Oc3ccc(cc3Cl)[C@@H](O)[C@@H](NC(=O)[C@@H](CC(C)C)NC)C(=O)N[C@@H](CC(N)=O)C(=O)N[C@H]5C(=O)N[C@H]3C(=O)N[C@H](C(=O)N[C@H](C(=O)O)c5cc(O)c(CNCP(=O)(O)O)c(O)c5-c5cc3ccc5O)[C@H](O)c3ccc(c(Cl)c3)O4)O[C@H](CO)[C@@H](O)[C@@H]2O)O[C@@H](C)[C@H]1O [TELAVANCIN] | 0.07 | 6.7 | 0.2 | 9.2 | 
34 | CC[C@@]1(O)C(=O)OCc2c1cc1n(c2=O)Cc2cc3c(CN(C)C)c(O)ccc3nc2-1 [TOPOTECAN] | 0.65 |  |  |  | 
35 | CC[C@]1(O)C[C@H]2CN(CCc3c([nH]c4ccccc34)[C@@](C(=O)OC)(c3cc4c(cc3OC)N(C=O)[C@H]3[C@@](O)(C(=O)OC)[C@H](OC(C)=O)[C@]5(CC)C=CCN6CC[C@]43[C@@H]65)C2)C1 [VINCRISTINE] |  | 23 | 2 | 20 | 2.4
36 | CC[C@]1(O)C[C@@H]2CN(CCc3c([nH]c4ccccc34)[C@@](C(=O)OC)(c3cc4c(cc3OC)N(C)[C@H]3[C@@](O)(C(N)=O)[C@H](O)[C@]5(CC)C=CCN6CC[C@]43[C@@H]65)C2)C1 [VINDESINE] |  | 35 | 2.2 | 38 | 5
37 | C[C@@H](c1ncncc1F)[C@](O)(Cn1cncn1)c1ccc(F)cc1F [VORICONAZOLE] | 0.42 | 5.6 |  | 4.4 | 2.2
38 | O=C(NCCNCC(O)COc1ccc(O)cc1)N1CCOCC1 (configuration not stated) [XAMOTEROL] |  | 7.7 | 3 | 3.6 | 0.64
39 | CCN(C(C)=O)c1cccc(-c2ccnc3c(C#N)cnn23)c1 [ZALEPLON] | 0.4 |  |  | 1.4 | 1.3
40 | CC(=O)N[C@H]1[C@H]([C@H](O)[C@H](O)CO)OC(C(=O)O)=C[C@@H]1N=C(N)N [ZANAMIVIR] |  | 1.7 | 1.6 | 2.4 | 0.23
41 | Cc1cn([C@H]2C[C@H](N=[N+]=[N-])[C@@H](CO)O2)c(=O)[nH]c1=O [ZIDOVUDINE] | 0.8 | 1.3 |  | 1.2 | 1.8
42 | O=C1Cc2cc(CCN3CCN(c4nsc5ccccc45)CC3)c(Cl)cc2N1 [ZIPRASIDONE] |  | 3.1 | 5.1 | 3.3 | 1
43 | CN(C)CCc1c[nH]c2ccc(C[C@H]3COC(=O)N3)cc12 [ZOLMITRIPTAN] |  | 3.6 | 6.7 | 4.6 | 1.8
44 | Cc1ccc(-c2nc3ccc(C)cn3c2CC(=O)N(C)C)cc1 [ZOLPIDEM] |  | 1.7 | 4.3 | 2.1 | 0.54
45 | O=C(O)Cn1c(=O)c(=O)[nH]c2cc([N+](=O)[O-])c(-n3ccnc3)cc21 [ZONAMPANEL] |  | 0.78 | 5.3 | 0.6 | 0.19
46 | CN1CCN(C(=O)OC2c3nccnc3C(=O)N2c2ccc(Cl)cn2)CC1 (configuration not stated) [ZOPICLONE] |  | 5.2 | 3.3 | 6.6 | 1.3
47 | CO[C@H]1C[C@@H]2CC[C@@H](C)[C@@](O)(O2)C(=O)C(=O)N2CCCC[C@H]2C(=O)O[C@H]([C@H](C)C[C@@H]2CC[C@H](n3cnnn3)[C@H](OC)C2)CC(=O)[C@H](C)/C=C(\C)[C@@H](O)[C@@H](OC)C(=O)[C@H](C)C[C@H](C)/C=C/C=C/C=C/1C [ZOTAROLIMUS] |  | 35 | 0.67 | 33 | 1.3
